Source: ChEMBL document CHEMBL5506073, “Discovery of Novel Ortho-Aminophenol Derivatives Targeting Lipid Peroxidation with Potent Antiferroptotic Activities” (J Med Chem, 2024)
Blank lines part the entries; values can stand above or below the molecule they belong to. Active and inactive are the calls of the source. The rule behind the calls is not given here.

Columns and labels:
HT-1080 [1] = experiment: Inhibition of RSL3-induced ferroptosis in human HT-1080 cells assessed as cell viability incubated for 24 hrs by CCK8 assay; type: functional, cell-based; conditions: for EC50: HT-1080, 24 h
Mus musculus [2] = experiment: Protection against APAP-induced acute liver injury in overnight fasted C57BL/6 mouse model assessed as decrease in plasma AST level at 10 mg/kg, ip administered 1 hr prior to APAP treatment measured after 12 hrs post-APAP treatment under continuous fasting condition; type: functional, organism-based; conditions: time 13.0 hrs
Mus musculus [3] = experiment: Protection against APAP-induced acute liver injury in overnight fasted C57BL/6 mouse model assessed as decrease in plasma ALT level at 10 mg/kg, ip administered 1 hr prior to APAP treatment measured after 12 hrs post-APAP treatment under continuous fasting condition; type: functional, organism-based; conditions: time 13.0 hrs
Mus musculus [4] = experiment: Protection against APAP-induced acute liver injury in overnight fasted C57BL/6 mouse model assessed as reduction in 4-HNE formation in liver at 10 mg/kg, ip administered 1 hr prior to APAP treatment measured after 12 hrs post-APAP treatment under continuous fasting condition by IHC analysis; type: functional, organism-based; conditions: time 13.0 hrs
HT-1080 [5] = experiment: Inhibition of RSL3-induced ferroptosis in human HT-1080 cells assessed as cell viability at 200 nM incubated for 24 hrs by CCK8 assay; type: functional, cell-based
HKC [6] = experiment: Inhibition of RSL3-induced ferroptosis in human HKC cells assessed as cell viability at 200 nM incubated for 24 hrs by CCK8 assay; type: functional, cell-based
HK-2 [7] = experiment: Inhibition of RSL3-induced ferroptosis in human HK-2 cells assessed as cell viability at 200 nM incubated for 24 hrs by CCK8 assay; type: functional, cell-based
KHOS/NP [8] = experiment: Inhibition of RSL3-induced ferroptosis in human KHOS/NP cells assessed as cell viability at 200 nM incubated for 24 hrs by CCK8 assay; type: functional, cell-based
SW480 [9] = experiment: Inhibition of RSL3-induced ferroptosis in human SW480 cells assessed as cell viability at 200 nM incubated for 24 hrs by CCK8 assay; type: functional, cell-based
HTR-8/SVneo [10] = experiment: Inhibition of RSL3-induced ferroptosis in human HTR-8/SVneo cells assessed as cell viability at 200 nM incubated for 24 hrs by CCK8 assay; type: functional, cell-based
HT-1080 [11] = experiment: Inhibition of FIN56-induced ferroptosis in human HT-1080 cells assessed as cell viability at 200 nM incubated for 24 hrs by CCK8 assay; type: functional, cell-based
HKC [12] = experiment: Inhibition of FIN56-induced ferroptosis in human HKC cells assessed as cell viability at 200 nM incubated for 24 hrs by CCK8 assay; type: functional, cell-based
HK-2 [13] = experiment: Inhibition of FIN56-induced ferroptosis in human HK-2 cells assessed as cell viability at 200 nM incubated for 24 hrs by CCK8 assay; type: functional, cell-based
KHOS/NP [14] = experiment: Inhibition of FIN56-induced ferroptosis in human KHOS/NP cells assessed as cell viability at 200 nM incubated for 24 hrs by CCK8 assay; type: functional, cell-based
SW480 [15] = experiment: Inhibition of FIN56-induced ferroptosis in human SW480 cells assessed as cell viability at 200 nM incubated for 24 hrs by CCK8 assay; type: functional, cell-based
HTR-8/SVneo [16] = experiment: Inhibition of FIN56-induced ferroptosis in human HTR-8/SVneo cells assessed as cell viability at 200 nM incubated for 24 hrs by CCK8 assay; type: functional, cell-based
HT-1080 [17] = experiment: Inhibition of ferroptosis in human HT-1080 cells assessed as reversal of RSL3-induced cell shrinkage; type: functional, cell-based
HT-1080 [18] = experiment: Inhibition of ferroptosis in human HT-1080 cells assessed as reversal of RSL3-induced swelling; type: functional, cell-based
HT-1080 [19] = experiment: Inhibition of ferroptosis in human HT-1080 cells assessed as reversal of RSL3-induced membrane rupture; type: functional, cell-based
HT-1080 [20] = experiment: Inhibition of ferroptosis in human HT-1080 cells assessed as reversal of RSL3-induced normal morphological loss; type: functional, cell-based
HT-1080 [21] = experiment: Inhibition of RSL3-induced lipid peroxidation in human HT-1080 cells assessed as reduction in green fluorescence by C11-BODIPY581/591 probe based analysis; type: functional, cell-based
HT-1080 [22] = experiment: Inhibition of RSL3-induced lipid peroxidation in human HT-1080 cells assessed as reduction in MDA adduct accumulation by ELISA; type: functional, cell-based
HT-1080 [23] = experiment: Effect on lipid metabolism in human HT-1080 cells assessed as change in ACSL4 mRNA level by qRT-PCR analysis; type: functional, cell-based
HT-1080 [24] = experiment: Effect on lipid metabolism in human HT-1080 cells assessed as change in ALOX15 mRNA level by qRT-PCR analysis; type: functional, cell-based
HT-1080 [25] = experiment: Effect on lipid metabolism in human HT-1080 cells assessed as change in COX2 mRNA level by qRT-PCR analysis; type: functional, cell-based
HT-1080 [26] = experiment: Effect on glutathione metabolic pathway in human HT-1080 cells assessed as change in GPX4 mRNA level by qRT-PCR analysis; type: functional, cell-based
HT-1080 [27] = experiment: Effect on glutathione metabolic pathway in human HT-1080 cells assessed as change in SLC7A11 mRNA level by qRT-PCR analysis; type: functional, cell-based
HT-1080 [28] = experiment: Effect on iron metabolism in human HT-1080 cells assessed as change in DMT1 mRNA level by qRT-PCR analysis; type: functional, cell-based
HT-1080 [29] = experiment: Effect on iron metabolism in human HT-1080 cells assessed as change in TFRC mRNA level by qRT-PCR analysis; type: functional, cell-based
HT-1080 [30] = experiment: Effect on iron metabolism in human HT-1080 cells assessed as change in FTH1 mRNA level by qRT-PCR analysis; type: functional, cell-based
[31] = Antioxidant activity assessed as DPPH radical scavenging activity at 20 uM incubated for 30 mins by absorbance based assay; type: functional
Mus musculus [32] = experiment: Protection against kidney ischemia-reperfusion injury in C57BL/6 mouse model assessed as decrease in serum creatinine level at 10 mg/kg, ip administered twice 1 hr prior to ischemia onset measured after 24 hrs post-ischemia; type: functional, organism-based; conditions: time 25.0 hrs
Mus musculus [33] = experiment: Protection against kidney ischemia-reperfusion injury in C57BL/6 mouse model assessed as decrease in BUN level at 10 mg/kg, ip administered twice 1 hr prior to ischemia onset measured after 24 hrs post-ischemia; type: functional, organism-based; conditions: time 25.0 hrs
Mus musculus [34] = experiment: Protection against kidney ischemia-reperfusion injury in C57BL/6 mouse model assessed as decrease in renal tubule dilation at 10 mg/kg, ip administered twice 1 hr prior to ischemia onset measured after 24 hrs post-ischemia by H and E staining based analysis; type: functional, organism-based; conditions: time 25.0 hrs
Mus musculus [35] = experiment: Protection against kidney ischemia-reperfusion injury in C57BL/6 mouse model assessed as decrease in brush edges loss in kidney at 10 mg/kg, ip administered twice 1 hr prior to ischemia onset measured after 24 hrs post-ischemia by H and E staining based analysis; type: functional, organism-based; conditions: time 25.0 hrs
Mus musculus [36] = experiment: Protection against kidney ischemia-reperfusion injury in C57BL/6 mouse model assessed as decrease in cytoplasmic vacuoles in kidney at 10 mg/kg, ip administered twice 1 hr prior to ischemia onset measured after 24 hrs post-ischemia by H and E staining based analysis; type: functional, organism-based; conditions: time 25.0 hrs
Mus musculus [37] = experiment: Protection against kidney ischemia-reperfusion injury in C57BL/6 mouse model assessed as decrease in KIM-1 level in kidney at 10 mg/kg, ip administered twice 1 hr prior to ischemia onset measured after 24 hrs post-ischemia by IHC analysis; type: functional, organism-based; conditions: time 25.0 hrs
Mus musculus [38] = experiment: (§1) Protection against APAP-induced acute liver injury in overnight fasted C57BL/6 mouse model assessed as normal pathology of liver at 10 mg/kg, ip administered 1 hr prior to APAP treatment measured after 12 hrs post-APAP treatment under continuous fasting condition by H and E staining based analysis; type: functional, organism-based; conditions: time 13.0 hrs
Mus musculus [39] = experiment: Protection against APAP-induced acute liver injury in overnight fasted C57BL/6 mouse model assessed as reversal of native liver architecture at 10 mg/kg, ip administered 1 hr prior to APAP treatment measured after 12 hrs post-APAP treatment under continuous fasting condition by H and E staining based analysis; type: functional, organism-based; conditions: time 13.0 hrs
Mus musculus [40] = experiment: as §1, with “reduction in necrotic areas” for “normal pathology”; type: functional, organism-based; conditions: time 13.0 hrs
[41] = Antioxidant activity assessed as DPPH radical scavenging activity at 10 uM incubated for 30 mins by absorbance based assay; type: functional
HT-1080 [42] = experiment: Inhibition of RSL3-induced ferroptosis in human HT-1080 cells assessed as cell viability at 0.5 uM incubated for 24 hrs by CCK8 assay; type: functional, cell-based

EC50 (HT-1080 [1]): 0.0992 µM
SMILES: CSc1nnc(-c2cccc(O)c2N)o1

EC50 (HT-1080 [1]): 0.177 µM
SMILES: COc1ccc(CSc2nnc(-c3cccc(O)c3N)o2)cc1

EC50 (HT-1080 [1]): 0.046 µM
SMILES: Cc1ccc(CSc2nnc(-c3cccc(O)c3N)o2)cc1
Activity (Mus musculus [2]): Active
Activity (Mus musculus [3]): Active
Activity (Mus musculus [4]): Active
inhibition (HT-1080 [5]): Active
inhibition (HKC [6]): Active
inhibition (HK-2 [7]): Active
inhibition (KHOS/NP [8]): Active
inhibition (SW480 [9]): Active
inhibition (HTR-8/SVneo [10]): Active
inhibition (HT-1080 [11]): Active
inhibition (HKC [12]): Active
inhibition (HK-2 [13]): Active
inhibition (KHOS/NP [14]): Active
inhibition (SW480 [15]): Active
inhibition (HTR-8/SVneo [16]): Active
inhibition (HT-1080 [17]): Active
inhibition (HT-1080 [18]): Active
inhibition (HT-1080 [19]): Active
inhibition (HT-1080 [20]): Active
inhibition (HT-1080 [21]): Active
inhibition (HT-1080 [22]): Active
Activity (HT-1080 [23]): inactive
Activity (HT-1080 [24]): inactive
Activity (HT-1080 [25]): inactive
Activity (HT-1080 [26]): inactive
Activity (HT-1080 [27]): inactive
Activity (HT-1080 [28]): inactive
Activity (HT-1080 [29]): inactive
Activity (HT-1080 [30]): inactive
Activity [31]: Active
Activity (Mus musculus [32]): Active
Activity (Mus musculus [33]): Active
Activity (Mus musculus [34]): Active
Activity (Mus musculus [35]): Active
Activity (Mus musculus [36]): Active
Activity (Mus musculus [37]): Active
Activity (Mus musculus [38]): Active
Activity (Mus musculus [39]): Active
Activity (Mus musculus [40]): Active

EC50 (HT-1080 [1]): > 1 µM
SMILES: Nc1c(O)cccc1-c1nnc(SCC(=O)O)o1

EC50 (HT-1080 [1]): 0.871 µM
SMILES: Nc1c(O)cccc1-c1nnc(SCc2ccc([N+](=O)[O-])cc2)o1

Further lines, the molecule ahead of its results:

SMILES: Nc1c(O)cccc1C(=O)N/N=C/c1ccccn1
EC50 (HT-1080 [1]): 0.191 µM

SMILES: Nc1c(O)cccc1-c1nc2ccccc2[nH]1
EC50 (HT-1080 [1]): 0.263 µM

SMILES: CCOC(=O)c1ccc(NC2CCCCC2)c(N)c1
EC50 (HT-1080 [1]): 0.203 µM

SMILES: COC(=O)c1cccc(O)c1N
inhibition (HT-1080 [1]): Dose-Dependent Effect
EC50 (HT-1080 [1]): 0.526 µM

SMILES: N#Cc1cccc(/C=N/NC(=O)c2cccc(O)c2N)c1
EC50 (HT-1080 [1]): 0.727 µM

SMILES: Cc1cc2nc(-c3cccc(O)c3N)[nH]c2cc1C
Activity (Mus musculus [2]): Active
Activity (Mus musculus [3]): Active
Activity (Mus musculus [4]): Active
EC50 (HT-1080 [1]): 0.181 µM
inhibition (HT-1080 [5]): Active
inhibition (HKC [6]): Active
inhibition (HK-2 [7]): Active
inhibition (KHOS/NP [8]): Active
inhibition (SW480 [9]): Active
inhibition (HTR-8/SVneo [10]): Active
inhibition (HT-1080 [11]): Active
inhibition (HKC [12]): Active
inhibition (HK-2 [13]): Active
inhibition (KHOS/NP [14]): Active
inhibition (SW480 [15]): Active
inhibition (HTR-8/SVneo [16]): Active
inhibition (HT-1080 [17]): Active
inhibition (HT-1080 [18]): Active
inhibition (HT-1080 [19]): Active
inhibition (HT-1080 [20]): Active
inhibition (HT-1080 [21]): Active
inhibition (HT-1080 [22]): Active
Activity (HT-1080 [23]): inactive
Activity (HT-1080 [24]): inactive
Activity (HT-1080 [25]): inactive
Activity (HT-1080 [26]): inactive
Activity (HT-1080 [27]): inactive
Activity (HT-1080 [28]): inactive
Activity (HT-1080 [29]): inactive
Activity (HT-1080 [30]): inactive
Activity [31]: Active
Activity (Mus musculus [32]): Active
Activity (Mus musculus [33]): Active
Activity (Mus musculus [34]): Active
Activity (Mus musculus [35]): Active
Activity (Mus musculus [36]): Active
Activity (Mus musculus [37]): Active
Activity (Mus musculus [38]): Active
Activity (Mus musculus [39]): Active
Activity (Mus musculus [40]): Active

SMILES: Nc1c(O)cccc1C(=O)N/N=C/c1ccc[nH]1
EC50 (HT-1080 [1]): 0.343 µM

SMILES: CCCOC(=O)c1cccc(O)c1N
EC50 (HT-1080 [1]): 0.301 µM
Activity [41]: Active
inhibition (HT-1080 [42]): Active

SMILES: Nc1c(O)cccc1C(=O)N/N=C/c1ccc(C(=O)O)cc1
EC50 (HT-1080 [1]): > 1 µM
